Data reported in patent US20090264473A1, “Novel Crystalline Forms of Antidiabetic Compounds” (priority 2006, published 2009).
Structures can show the parent of a compound that is named as a salt.

Experiments:
[1] = hygroscopicity (weight gain in humid environment); assay type: physicochemical
water solubility = assay type: physicochemical
[2] = stability of crystal form; assay type: physicochemical
[3] = bioavailability in laboratory studies in dogs; assay type: in vivo
[4] = bioavailability in laboratory studies in rats; assay type: in vivo
[5] = bioavailability in animals; assay type: in vivo
chemical stability = assay type: physicochemical

| SMILES | weight gain when placed in humid environment ([1]; environment with up to 95% RH) | water solubility (water solubility; native pH) | water solubility (water solubility; neutral pH) | stability with respect to retaining crystal form [2] | bioavailability [3] | bioavailability [4] | bioavailability [5] | hygroscopicity [1] | chemical stability (chemical stability) | chemical stability on storage (chemical stability; 8 months at 40° C. and 75% RH) |
| --- | --- | --- | --- | --- | --- | --- | --- | --- | --- | --- |
| CCCc1nc(Oc2ccc(Cl)cc2)ccc1-c1noc2cc(Cl)c(O[C@@H](C)C(=O)O)cc12 [Crystalline Free Acid Anhydrate, (2S)-2-({6-chloro-3-[6-(4-chlorophenoxy)-2-propylpyridin-3-yl]-1,2-benzisoxazol-5-yl}oxy)propanoic acid] | about 0.2 wt % | very low water solubility | low water solubility | stable with respect to retaining their crystal form | good bioavailability | good bioavailability | good bioavailability |  |  |  |
| CCCc1nc(Oc2ccc(Cl)cc2)ccc1-c1noc2cc(Cl)c(O[C@@H](C)C(=O)O)cc12 [benzenesulfonate salt] |  |  |  |  |  |  |  | non-hygroscopic | chemically stable | remaining unchanged |
